The text below walks through data of patent publication US10544125B2, “Process for preparing an anti-cancer agent, 1-((4-(4-fluoro-2-methyl-1H-indol-5-yloxy)-6-methoxyquinolin-7-yloxy)methyl)cyclopropanamine, its crystalline form and its salts” (Advenchen Pharmaceuticals, LLC, priority 2015, dated 2020).

Converted amounts (≈) assume the structure as drawn. Counter-ions that a name gives are not always drawn.

Data set [1] can be described thus: Conventional water solubility test. The class given is physicochemical. The source says: Conventional water solubility test has been conducted to give the following results: […]
For a further data set, the system named is Ishikawa (endometrial). The data set can be described thus: In vitro MTT (proliferation) assay. The class given is cell-based, human. The following applies: Ishikawa cancer cell line. Here is the method: (§1) In vitro MTT (proliferation) assay was performed with compound from above examples to give following inhibition results: […]
A further data set has as its system HCT1 16 (colon). The data set can be described thus: In vitro MTT (proliferation) assay. The class given is cell-based. The following applies: HCT1 16 cancer cell line. Here is the method: as §1
For the next data set, the system named is PANC-1 (pancreatic). The data set can be described thus: In vitro MTT (proliferation) assay. The following applies: PANC-1 cancer cell line. The class given is cell-based. Here is the method: as §1
The next data set relates to MDA-MB-231 (breast). The data set can be described thus: In vitro MTT (proliferation) assay. The following applies: MDA-MB-231 cancer cell line. The class given is cell-based. How it is done:
as §1

In a further data set the test system is Saos-2 (sarcoma). The data set can be described thus: In vitro MTT (proliferation) assay. Format: cell-based. Particulars: Saos-2 cancer cell line. How it is done: as §1
Another data set deals with BEL7404 (liver). The data set can be described thus: In vitro MTT (proliferation) assay. The following applies: BEL7404 cancer cell line. The class given is cell-based. Here is the method: as §1
Another data set has as its system NC1-H157 (lung). The data set can be described thus: In vitro MTT (proliferation) assay. The following applies: NC1-H157 cancer cell line. The class given is cell-based. Here is the method: as §1
For another data set, the system named is SW579 (thyroid). The data set can be described thus: In vitro MTT (proliferation) assay. The class given is cell-based. Particulars: SW579 cancer cell line. How it is done: as §1
A further data set concerns Hela (cervical). The data set can be described thus: In vitro MTT (proliferation) assay. Format: cell-based. The following applies: Hela cancer cell line. How it is done:
as §1

The subject of a further data set is MKN45 (gastric). The data set can be described thus: In vitro MTT (proliferation) assay. Format: cell-based. The following applies: MKN45 cancer cell line. Here is the method: as §1
Another data set concerns SKOV3 (ovarian). The data set can be described thus: In vitro MTT (proliferation) assay. Particulars: SKOV3 cancer cell line. The class given is cell-based. Here is the method: as §1
A further data set deals with PC-3 (prostate). The data set can be described thus: In vitro MTT (proliferation) assay. Format: cell-based. Particulars: PC-3 cancer cell line. How it is done:
as §1

The subject of a further data set is laser-induced CNV. The data set can be described thus: Mouse model of laser-induced choroidal neovascularization (CNV). The class given is in vivo, C57 BL/6 mice. Particulars: for reduction in average size of laser-induced CNV: C57 BL/6 mice, day -1 to day 10, FIG. 18. Here is the method:
A mouse model of laser-induced choroidal neovascularization (CNV)
(1) Experiments were performed in C57 BL/6 mice at 10 to 12 weeks of age. Laser CNV was induced with a 532 nm diode laser mounted on a slit lamp, using […], 100 ms duration and 100 mW laser energy. Each eye received 4 laser burns. Stock solution of AL3818-H1 was made by dissolving the compound in water to 25 mg/ml concentration, and further diluted to working solution of either 250 or 25 μg/ml in water. Mice were orally gavaged at dosage of 2.5 or 0.25 mg/kg body weight, in volume of 200 μl per 20 gram of body weight, once every day starting at one day before laser treatment until 10 days afterwards. Control group mice will receive gavage with water which is used to dissolve the compound. By the end of the experiment, mice were subjected to fluorescence angiography to exclude the spots with hemorrhage and other mechanic injuries caused by the procedures. Mice were sacrificed and CNV size was measured by immunostaining of RPE/choroid flat mount co-stained with FITC-conjugated isolectin B4 and anti-ICAM2 antibody. For groups of control, 0.25 mg/kg and 2.5 mg/kg, we examined 43, 44 and 49 eyes on RPE/choroid flat mount. After immunostaining, images were taken on a Zeiss fluorescence microscope. CNV size was measured in Image J software. […] (2) The potential synergistic or additive effects between AL3818-M and anti-VEGF antibody was also studied. Immediately after laser burn, mice were treated with a monoclonal VEGF neutralizing antibody from R&D Systems (mAb AF564) at 1 μg dosage by intravitreal injection. We had 4 experimental groups: control (treated with water), AL3818-M, anti-VEGF, and AL3818-M+anti-VEGF. A total of 75 laser spots were analyzed. Mice in control or AL3818-M alone group received the intravitreal injection of saline in the same 2 μl volume.

As for `COc1cc2c(Oc3ccc4[nH]c(C)cc4c3F)ccnc2cc1OCC1(N)CC1` [AL3818-F, 1-((4-(4-Fluoro-2-methyl-1H-indol-5-yloxy)-6-methoxyquinolin-7-yloxy)methyl)cyclopropanamine], in [1], the water solubility came out at 0.02 mg/mL (≈ 49.1 µM). Also, the IC50 in the data set on Ishikawa (endometrial) worked out at 1.04 µM; in the data set with HCT1 16 (colon) (MTT (proliferation) assay), 3.25 µM; with PANC-1 (pancreatic) (MTT (proliferation) assay), 1.34 µM; in the data set with MDA-MB-231 (breast) (MTT (proliferation) assay), 5.56 µM; in the data set with Saos-2 (sarcoma) (MTT (proliferation) assay) it was 5.13 µM; in the data set with BEL7404 (liver) it was 0.93 µM. In addition, the half-maximal inhibitory concentration (IC50) stood at 1.83 µM in the data set with NC1-H157 (lung); 1 µM in the data set with SW579 (thyroid); 3.23 µM in the data set with Hela (cervical); 3.11 µM in the data set on MKN45 (gastric); 5.97 µM with SKOV3 (ovarian) (MTT (proliferation) assay); 5.11 µM with PC-3 (prostate).

Regarding `COc1cc2c(Oc3ccc4[nH]c(C)cc4c3F)ccnc2cc1OCC1(N)CC1` [AL3818-H1, 1-((4-(4-Fluoro-2-methyl-1H-indol-5-yloxy)-6-methoxy-quinolin-7-yloxy)-methyl)cyclopropanamine Bishydrochloride Acid Salt], the water solubility in [1] is 6 mg/mL. Further, the IC50 was found to be 5.67 µM with Ishikawa (endometrial); 3.45 µM with HCT1 16 (colon) (Homo sapiens, HCT-116, MTT (proliferation) assay); 1.58 µM in the data set on PANC-1 (pancreatic) (Homo sapiens, PANC-1, MTT (proliferation) assay); 10.2 µM in the data set on MDA-MB-231 (breast) (Homo sapiens, MDA-MB-231, MTT (proliferation) assay); 4.68 µM in the data set on Saos-2 (sarcoma) (Homo sapiens, SAOS-2, MTT (proliferation) assay); 2.75 µM with BEL7404 (liver). For the same molecule, the IC50 stood at 7.18 µM in the data set with NC1-H157 (lung); 2.33 µM in the data set with SW579 (thyroid); 3.7 µM in the data set with Hela (cervical) (Homo sapiens, HeLa); 1.77 µM with MKN45 (gastric); 5.34 µM with SKOV3 (ovarian) (Homo sapiens, SK-OV-3, MTT (proliferation) assay); 5.53 µM with PC-3 (prostate). Moreover, the “reduction in average size of laser-induced CNV” value with laser-induced CNV (oral gavage 0.25 mg/kg body weight once daily) and with laser-induced CNV (oral gavage 2.5 mg/kg body weight once daily) was approximately 70% each time.

`COc1cc2c(Oc3ccc4[nH]c(C)cc4c3F)ccnc2cc1OCC1(N)CC1.Cl.Cl.O` [AL3818-H2, 1-((4-(4-Fluoro-2-methyl-1H-indol-5-yloxy)-6-methoxy-quinolin-7-yloxy)methyl)cyclopropanamine bishydrochloridehydrate Acid Salt]: in data set [1], the water solubility worked out at 7 mg/mL. Moreover, the 50% inhibitory concentration (IC50) was 1.56 µM in the data set with Ishikawa (endometrial); 3.34 µM in the data set with HCT1 16 (colon) (MTT (proliferation) assay); 1.55 µM in the data set on PANC-1 (pancreatic) (MTT (proliferation) assay); 5.71 µM in the data set on MDA-MB-231 (breast) (MTT (proliferation) assay); 4.98 µM with Saos-2 (sarcoma) (MTT (proliferation) assay); 1.74 µM in the data set with BEL7404 (liver). Moreover, the IC50 was 2.29 µM with NC1-H157 (lung); 1.29 µM with SW579 (thyroid); 4.07 µM in the data set on Hela (cervical); 3.9 µM in the data set on MKN45 (gastric); 5.7 µM in the data set with SKOV3 (ovarian) (MTT (proliferation) assay); 3.88 µM in the data set on PC-3 (prostate).

As to `COc1cc2c(Oc3ccc4[nH]c(C)cc4c3F)ccnc2cc1OCC1(N)CC1.O=C(O)/C=C\C(=O)O.O=C(O)/C=C\C(=O)O` [AL3818-M, 1-((4-(4-Fluoro-2-methyl-1H-indol-5-yloxy)-6-methoxy-quinolin-7-yloxy)-methyl)cyclopropanamine Bismaleic Acid Salt], the solubility in data set [1] amounted to 0.5 mg/mL. Further, the IC50 in the data set with Ishikawa (endometrial) worked out at 1.34 µM; with HCT1 16 (colon) (MTT (proliferation) assay) it was 4.62 µM; with PANC-1 (pancreatic) (MTT (proliferation) assay) it was 1.15 µM; with MDA-MB-231 (breast) (MTT (proliferation) assay), 5.37 µM; in the data set on Saos-2 (sarcoma) (MTT (proliferation) assay), 5.49 µM; with BEL7404 (liver), 1.15 µM. Besides, the IC50 in the data set with NC1-H157 (lung) worked out at 2.02 µM; in the data set on SW579 (thyroid), 1.15 µM; in the data set on Hela (cervical), 3.94 µM; with MKN45 (gastric) it was 2.65 µM; with SKOV3 (ovarian) (MTT (proliferation) assay), 6.56 µM; in the data set with PC-3 (prostate), 3.62 µM. For the same molecule, the “reduction in laser CNV as compared to the control group” value in the data set with laser-induced CNV (0.15 mg/kg together with 1 μg anti-VEGF antibody (mAb AF564) intravitreal, P<0.01, FIG. 19) was approximately 30%.

As to `COc1cc2c(Oc3ccc4[nH]c(C)cc4c3F)ccnc2cc1OCC1(N)CC1.O=C(O)CCC(=O)O` [AL3818-S, 1-((4-(4-Fluoro-2-methyl-1H-indol-5-yloxy)-6-methoxy-quinolin-7-yloxy)methyl)cyclopropanamine Succinic Acid Salt], the solubility in data set [1] stood at 0.1 mg/mL. In addition, the IC50 in the data set on Ishikawa (endometrial) is 1.32 µM; in the data set with HCT1 16 (colon) (MTT (proliferation) assay), 3.94 µM; in the data set on PANC-1 (pancreatic) (MTT (proliferation) assay) it was 1.24 µM; in the data set with MDA-MB-231 (breast) (MTT (proliferation) assay), 6.1 µM; in the data set with Saos-2 (sarcoma) (MTT (proliferation) assay), 5.68 µM; with BEL7404 (liver), 1.43 µM. In addition, the IC50 turned out to be 2.28 µM in the data set on NC1-H157 (lung); 2.61 µM in the data set on SW579 (thyroid); 4.66 µM in the data set with Hela (cervical); 4.16 µM in the data set with MKN45 (gastric); 7.6 µM in the data set with SKOV3 (ovarian) (MTT (proliferation) assay); 4.41 µM in the data set with PC-3 (prostate).
